Source: publication PMC11546061, “Development and Evaluation of ABI-171, a New Fluoro-Catechin Derivative, for the Treatment of Idiopathic Pulmonary Fibrosis” (International Journal of Molecular Sciences, 2024)
Like-named read-outs stand apart in the source and are kept apart here.

Columns and labels:
PIM3 = PIM3 (Homo sapiens, UniProt Q86V86); experiment: PIM3 kinase inhibition; assay type: biochemical
Description: Table 1 Best DYRK1A inhibitors. | column: PIM3 IC50

PIM1 = PIM1 (Homo sapiens, UniProt P11309); experiment: PIM1 kinase inhibition; assay type: biochemical
PIM1, sequence (P11309 whole entry, species assumed): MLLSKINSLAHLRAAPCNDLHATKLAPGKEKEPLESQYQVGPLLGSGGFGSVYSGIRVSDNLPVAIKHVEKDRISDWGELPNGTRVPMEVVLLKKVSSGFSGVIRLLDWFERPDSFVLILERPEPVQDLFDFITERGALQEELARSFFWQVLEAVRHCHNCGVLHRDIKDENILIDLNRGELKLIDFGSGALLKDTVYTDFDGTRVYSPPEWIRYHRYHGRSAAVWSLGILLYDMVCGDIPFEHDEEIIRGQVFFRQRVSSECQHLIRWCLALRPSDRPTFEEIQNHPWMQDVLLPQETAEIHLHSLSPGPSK

DYRK1A = DYRK1A (Homo sapiens, UniProt Q13627); experiment: DYRK1A kinase inhibition; assay type: biochemical
[1] = design: method as in PMID 36986543; conditions: mouse, plasma, cited from earlier work
[2] = test system: bleomycin-induced pulmonary fibrosis; experiment: Preventive bleomycin-induced IPF model (treatment from Day 0); assay type: in vivo, C57BL/6 mice; conditions: for body weight: Day 14 to 21 vs BLM model group, ABI compounds 60 mg/kg QD intranasal, pirfenidone 100 mg/kg oral thrice daily; for alveolitis and PF degrees (H&E and Masson staining): relative to bleomycin group; for hydroxyproline content in lung tissues: 21 days
Description: Consequently, we opted for intranasal delivery in our first IPF animal model, employing a validated BLM mouse model. […] The experiment considered the day of bleomycin injection as Day 0. […] The experiment was completed after 21 days.
In the preventive model, male C57BL/6 mice, aged 8–10 weeks, were used to simulate the early intervention scenario where treatment begins immediately following the induction of lung injury. […] On day 0, pulmonary fibrosis was induced by administering a single intratracheal infusion of bleomycin at a dose of 3 U/kg body weight, dissolved in 50 μL of sterile saline. Treatment with the test compounds commenced immediately after bleomycin administration and continued daily for 21 days. Body weight, survival rate, and clinical signs were monitored throughout the study.
At the end of the study period, the mice were sacrificed, and their lungs were harvested for histological and biochemical analyses. Lung tissues were fixed in 10% formalin and embedded in paraffin for histological examination using hematoxylin and eosin (H&E) staining to assess tissue morphology, and Masson’s trichrome staining to evaluate collagen deposition. Additionally, lung hydroxyproline content, a marker of collagen accumulation, was quantified using a colorimetric assay. Inflammatory cell infiltration was assessed by counting lymphocytes and neutrophils in bronchoalveolar lavage fluid (BALF).

PIM2 = PIM2 (Homo sapiens, UniProt Q9P1W9); experiment: PIM2 kinase inhibition; assay type: biochemical
PIM2, sequence (Q9P1W9 whole entry, species assumed): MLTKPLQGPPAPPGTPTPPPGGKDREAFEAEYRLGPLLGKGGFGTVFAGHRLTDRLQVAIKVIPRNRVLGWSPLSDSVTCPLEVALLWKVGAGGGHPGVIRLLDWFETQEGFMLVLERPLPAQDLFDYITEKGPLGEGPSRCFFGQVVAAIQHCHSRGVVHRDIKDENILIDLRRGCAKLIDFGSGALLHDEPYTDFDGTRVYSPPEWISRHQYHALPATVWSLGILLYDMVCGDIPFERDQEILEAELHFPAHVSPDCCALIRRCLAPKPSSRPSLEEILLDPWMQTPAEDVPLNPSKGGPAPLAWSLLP
Description: Table 1 Best DYRK1A inhibitors. | column: PIM2 IC50

[3] = test system: bleomycin-induced pulmonary fibrosis; experiment: Therapeutic bleomycin-induced IPF model (treatment from Day 7); assay type: in vivo, C57BL/6 mice
Description: In this study, drug treatment commenced 7 days post-induction of pulmonary fibrosis using BLM, employing a therapeutic model.
Pulmonary fibrosis was induced by a single intratracheal infusion of bleomycin at a dose of 3 U/kg body weight. Seven days post-bleomycin administration, when fibrosis was established, treatment with the test compounds commenced and continued daily for an additional 21 days.
Throughout the treatment period, body weight, survival rate, and clinical signs were monitored. At the study’s conclusion, mice were sacrificed, and their lungs were harvested for comprehensive histological and biochemical analyses. Lung tissues were processed for H&E and Masson’s trichrome staining to evaluate fibrosis and collagen deposition. Lung hydroxyproline content was measured to quantify collagen accumulation. Inflammatory cell infiltration in BALF was assessed by counting lymphocytes and neutrophils.

[4] = Pharmacokinetics and lung-tissue distribution after single IV, IN or PO dose; assay type: in vivo, C57BL/6 mice
Procedure: Plasma concentrations were measured using LC-MS/MS, and PK parameters were calculated with WinNonlin. […] The formulation is based on the solubilizer and penetration enhancer (2-hydroxypropyl)-β-cyclodextrin (HP-β-CD), PEG-400, and water.
They were given a commercial mice chow and water ad libitum. The experiments started after acclimation for at least 1 week. Dosing solutions were made fresh. Fasted mice were administered the test drug by oral (PO), intranasal (IN), and intravenous (IV) routes. […] […] […] Blood was collected into K2EDTA microtubes, kept on ice all the time and centrifuged within 30 min of collection. Blood samples in EDTA vacuum tubes were centrifuged at 4 °C at 15,000× g for 4 min; ~250 µL of plasma was collected into polyethylene tubes containing 50 µL of the ascorbic acid (AA)/TCEP stabilizing solution (20 mM AA and 13 mM TCEP in 50 mM K2HPO4 buffer. The pH of the solution was adjusted to 6.5 using 2 M NaOH). After collection, the plasma samples were immediately snap-frozen in isopropanol/carbon-dioxide dry ice and stored at −80 °C until analysis.
Test catechin was extracted from the above-collected plasma through 3 successive additions of 350 µL of acetonitrile. The plasma and solvent mixture were vortex-mixed for 2 min then snap-frozen with isopropanol/carbon-dioxide dry ice and the extraction solvent was removed. The solvent fractions were pooled into a polyethylene tube kept on ice. The combined fractions were evaporated under a gentle stream of nitrogen at ambient temperature. The residue obtained after evaporation was reconstituted in 200 µL of 75 mM citric acid/25 mM ammonium acetate: acetonitrile (75:25, by vol), vortexed vigorously for 5 min, and 20 µL of the resulting solution was injected into the HPLC column. Lung tissue was collected and treated immediately to avoid product degradation. Within 5 min of extraction, about ~0.4 g of the tissue was homogenized with 1 mL of ice-cold 0.4 M sodium phosphate buffer containing 6 mg of ascorbic acid and 0.5 mg of Na2EDTA (final pH of 6.5). After centrifugation at 4 °C at 15,000× g for 4 min, the supernatant was collected into polyethylene tubes containing 50 µL of the AA/TCEP stabilizing solution (20 mM AA and 13 mM TCEP in 50 mM K2HPO4 buffer. The pH of the solution was adjusted to 6.5 using 2 M NaOH), immediately snap-frozen in isopropanol/carbon-dioxide dry ice and stored at −80 °C until analysis. Extraction was performed as described above for plasma.

[5] = vs BLM group, 60 mg/kg QD intranasal
[6] = intranasal 50 mg/kg QD, from day 7 post-BLM
[7] = oral 100 mg/kg QD, from day 7 post-BLM
[8] = tissues from Group 4, vs BLM group
[9] = vs BLM group, 60 mg/kg QD intranasal, p < 0.05
[10] = C57BL/6, inhaled or intranasal, mouse, IN (60 mg/kg), lung
[11] = oral 100 mg/kg once daily, from day 7 post-BLM
[12] = C57BL/6, mouse, IV (10 mg/kg), plasma

Question: With `O=C(O[C@@H]1Cc2c(O)cc(O)cc2O[C@H]1c1cc(O)c(O)c(O)c1)c1c(F)c(O)c(O)c(O)c1F` [ABI-154] as the compound, how does the IC50 (PIM3) read?
Answer: The IC50 was 6000 nM.

Question: What about the IC50 (PIM1) of the same compound?
Answer: The IC50 was 722 nM.

Question: And the IC50 (DYRK1A; read-out: DYRK1A IC50)?
Answer: Its IC50 is 28 nM.

Question: What about the Tlast ([1]; PO (100 mg/kg)) of the same compound?
Answer: The Tlast was 24 h.

Question: And the body weight [2]?
Answer: Its body weight is “no body weight gain effect”.

Question: And the “alveolitis and PF degrees (H&E and Masson staining)” value ([2]; 60 mg/kg QD intranasal)?
Answer: The value was “decrease in the alveolitis and PF degrees”.

Question: And the “hydroxyproline content in lung tissues” value [2, 5]?
Answer: Its value is “significantly decreased”.

Question: And the IC50 (PIM2)?
Answer: The IC50 was 1080 nM.

Question: With `COc1cc(C(=O)O[C@@H]2Cc3c(O)cc(O)cc3O[C@H]2c2cc(O)c(O)c(O)c2)c(F)c(O)c1O` [ABI-171] as the compound, how does the IC50 (PIM3) read?
Answer: The IC50 was 813 nM.

Question: What about the “BLM-induced lung collagen level” value ([3]; day 21 of treatment) of the same compound?
Answer: The value was “significant reductions”.

Question: And the “BLM-induced lung fibronectin level” value ([3]; day 21 of treatment)?
Answer: Its value is “significant reductions”.

Question: What about the body weight [3, 6] of the same compound?
Answer: The body weight was “good recovery in body weight”.

Question: What about the survival [3, 6] of the same compound?
Answer: Its survival is “complete survival”.

Question: What about the “BLM-induced lung injuries, Masson's and H&E scores” value ([3]; intranasal 10 and 50 mg/kg, oral 100 mg/kg QD) of the same compound?
Answer: Its value is “improvements”.

Question: What about the body weight [3, 7] of the same compound?
Answer: Its body weight is “good recovery in body weight”.

Question: What about the survival [3, 7] of the same compound?
Answer: The survival was “complete survival”.

Question: What about the “E-cadherin levels in lung” value ([3]; oral treatment, tissues from Group 4) of the same compound?
Answer: Its value is “significantly elevated”.

Question: What about the “PIM1 level in lung” value [3, 8] of the same compound?
Answer: The value was “significantly reduced”.

Question: What about the “Smad3 (p-Smad3) levels in lung” value [3, 8] of the same compound?
Answer: Its value is “significantly reduces”.

Question: What about the “Snail expression in lung” value [3, 8] of the same compound?
Answer: The value was “reduce Snail expression”.

Question: And the “αSMA level in lung” value [3, 8]?
Answer: The value was “downregulating”.

Question: And the IC50 (PIM1)?
Answer: The IC50 was 87 nM.

Question: What about the IC50 (DYRK1A; read-out: DYRK1A IC50) of the same compound?
Answer: The IC50 was 73 nM.

Question: And the Tlast ([1]; IN (60 mg/kg))?
Answer: Its Tlast is 24 h.

Question: What about the “CL(IV)” value ([1]; IV (5 mg/kg)) of the same compound?
Answer: Its value is 60 mL/min/kg.

Question: And the “Vz(IV)” value ([1]; IV (5 mg/kg))?
Answer: Its value is 17 L/kg.

Question: And the “CL/F (PO)” value ([1]; PO (100 mg/kg))?
Answer: Its value is 101 mL/min/kg.

Question: And the “F (absolute oral bioavailability, PO/IV)” value ([1]; PO (100 mg/kg))?
Answer: Its value is 16%.

Question: What about the Tlast ([1]; PO (100 mg/kg)) of the same compound?
Answer: The Tlast was 24 h.

Question: What about the “Vz/F (PO)” value ([1]; PO (100 mg/kg)) of the same compound?
Answer: The value was 15.6 L/kg.

Question: What about the body weight [2] of the same compound?
Answer: The body weight was “significant increase in body weight”.

Question: What about the “alveolitis and PF degrees (H&E and Masson staining)” value ([2]; 60 mg/kg QD intranasal) of the same compound?
Answer: Its value is “decrease in the alveolitis and PF degrees”.

Question: What about the “hydroxyproline content in lung tissues” value [2, 5] of the same compound?
Answer: The value was “significantly decreased”.

Question: And the “lymphocytes (BALF)” value [2, 9]?
Answer: Its value is “significantly reduced”.

Question: What about the “neutrophils (BALF)” value [2, 9] of the same compound?
Answer: The value was “significantly reduced”.

Question: And the IC50 (PIM2)?
Answer: Its IC50 is 255 nM.

Question: And the AUC(0-inf) [4, 10]?
Answer: The AUC(0-inf) was 23200 ng·h/mL.

Question: What about the AUC(0-t) [4, 10] of the same compound?
Answer: Its AUC(0-t) is 23100 ng·h/mL.

Question: And the Tmax [4, 10]?
Answer: Its Tmax is 4 h.

Question: And the half-life [4, 10]?
Answer: The half-life was 3.93 h.

Question: And the Cmax ([4]; C57BL/6, inhaled or intranasal, mouse, IN (60 mg/kg), lung, read-out: Cmax)?
Answer: Its Cmax is 8740 ng/g.

Question: What about the AUC(0-t) ([4]; C57BL/6, mouse, PO (100 mg/kg), lung) of the same compound?
Answer: The AUC(0-t) was 214 ng·h/mL.

Question: What about the Cmax ([4]; C57BL/6, mouse, PO (100 mg/kg), lung, read-out: Cmax) of the same compound?
Answer: The Cmax was 231 ng/g.

Question: And the Cmax ([4]; IN route (60 mg/kg), total not unbound drug, read-out: theoretical cellular concentration in the lungs at Cmax)?
Answer: The Cmax was ~17.8 µM.

Question: What about the Tlast ([4]; mouse, IN (60 mg/kg), lung) of the same compound?
Answer: The Tlast was 24 h.

Question: What about the Tlast ([4]; mouse, PO (100 mg/kg), lung) of the same compound?
Answer: Its Tlast is 24 h.

Question: Which “activity in various assessments” value [3, 11] does the source give for `O=C(O[C@@H]1Cc2c(O)cc(O)cc2O[C@@H]1c1cc(O)c(O)c(O)c1)c1cc(O)c(O)c(O)c1` [EGCG, Epigallocatechin gallate, reference compound] here?
Answer: The value was “limited to moderate activity”.

Question: And the mortality [3, 11]?
Answer: The mortality was 50%.

Question: What about the IC50 (PIM1) of the same compound?
Answer: The IC50 was 1360 nM.

Question: And the IC50 (DYRK1A)?
Answer: Its IC50 is 235 nM.

Question: And the bioavailability ([4]; C57BL/6, mouse, lung, po, 100 mg/kg, read-out: F (absolute oral bioavailability, PO/IV))?
Answer: The bioavailability was 2%.

Question: What about the Vd/F ([4]; C57BL/6, mouse, lung, po, 100 mg/kg, read-out: Vz/F (PO)) of the same compound?
Answer: The Vd/F was 2680 L/kg.

Question: What about the AUC(0-inf) [4, 12] of the same compound?
Answer: Its AUC(0-inf) is 1830 ng·h/mL.

Question: And the AUC(0-t) [4, 12]?
Answer: Its AUC(0-t) is 1800 ng·h/mL.

Question: What about the half-life [4, 12] of the same compound?
Answer: Its half-life is 5.7 h.

Question: What about the Cmax ([4]; C57BL/6, mouse, IV (10 mg/kg), plasma, read-out: Cmax) of the same compound?
Answer: Its Cmax is 4420 ng/mL.

Question: And the Vd ([4]; C57BL/6, mouse, IV (10 mg/kg), plasma, read-out: Vz(IV))?
Answer: The Vd was 45.2 L/kg.

Question: And the T1/2 ([4]; EGCG column, PO (100 mg/kg), head prints Lung)?
Answer: Its T1/2 is 5 h.

Question: For `Cc1ccc(=O)n(-c2ccccc2)c1` [pirfenidone, Pirfenidone, reference compound], which body weight [2] is on record?
Answer: Its body weight is “significant increase in body weight”.
